# Results published in ChEMBL document CHEMBL1128951, “6-(4-Phenyl-benzyloxy-methyl) guvacine. Synthesis, GABA uptake inhibitor and muscarinic properties” (Bioorg Med Chem Lett, 1996).
# What was measured:
# [1] = molecular target: T1, Muscarinic acetylcholine receptor M1 (Homo sapiens) (UniProt P11229); assay: Compound was evaluated for binding affinity by displacement of [3H]pirenzepine from muscarinic M1 receptor at concentration 100 nM.
# T1 sequence (whole entry): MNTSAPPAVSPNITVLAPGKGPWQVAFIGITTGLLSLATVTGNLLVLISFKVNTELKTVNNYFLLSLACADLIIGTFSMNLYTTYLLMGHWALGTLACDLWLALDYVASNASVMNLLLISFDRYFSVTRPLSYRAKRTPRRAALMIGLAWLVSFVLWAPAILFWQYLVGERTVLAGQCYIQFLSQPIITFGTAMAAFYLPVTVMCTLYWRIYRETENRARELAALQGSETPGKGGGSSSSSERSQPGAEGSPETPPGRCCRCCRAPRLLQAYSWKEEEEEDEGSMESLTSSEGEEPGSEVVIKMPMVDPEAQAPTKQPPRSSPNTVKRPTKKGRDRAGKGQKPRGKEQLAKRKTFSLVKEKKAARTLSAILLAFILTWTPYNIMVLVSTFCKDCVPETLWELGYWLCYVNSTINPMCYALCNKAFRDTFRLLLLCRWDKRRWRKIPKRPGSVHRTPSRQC
# [2] = molecular target: T2, Muscarinic acetylcholine receptor M2 (Homo sapiens) (UniProt P08172); assay: Compound was evaluated for binding affinity by displacement of [3H]NMS from muscarinic M2 receptor at concentration 100 nM.
# T2 sequence (whole entry): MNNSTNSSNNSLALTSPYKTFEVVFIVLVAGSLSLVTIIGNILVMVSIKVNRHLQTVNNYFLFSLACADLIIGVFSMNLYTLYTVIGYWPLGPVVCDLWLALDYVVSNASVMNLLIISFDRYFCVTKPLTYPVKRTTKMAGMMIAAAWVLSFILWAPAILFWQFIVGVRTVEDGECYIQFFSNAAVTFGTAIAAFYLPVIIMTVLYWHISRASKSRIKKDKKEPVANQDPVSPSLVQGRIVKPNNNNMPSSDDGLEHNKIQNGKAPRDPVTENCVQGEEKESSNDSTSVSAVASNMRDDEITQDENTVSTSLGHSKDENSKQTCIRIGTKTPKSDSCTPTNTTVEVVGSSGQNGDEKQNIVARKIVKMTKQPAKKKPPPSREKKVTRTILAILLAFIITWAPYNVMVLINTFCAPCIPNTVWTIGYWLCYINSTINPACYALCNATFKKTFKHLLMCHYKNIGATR
# [3] = In vitro inhibitory activity against gamma-aminobutyric acid (GABA) uptake; type: functional
inhibition [1],inhibition [2],IC50 [3],SMILES
57%,59%,,O=C(O)C1=CCC(COCc2ccc(-c3ccccc3)cc2)NC1 (stereo unspecified)
12%,14%,,CCOC(=O)C1=CCC(COCc2ccc(-c3ccccc3)cc2)NC1 (stereo unspecified)
,,100 nM,O=C(O)C1=CCC(CCC(c2ccccc2)c2ccccc2)NC1 (stereo unspecified)
,,210 nM,O=C(O)C1=CCCN(CCC=C(c2ccccc2)c2ccccc2)C1
